The record followed here is patent US20230027361A1, “METTL3 MODULATORS” (priority 2019, published 2023).

The target in one assay is METTL3/METTL14 (Homo sapiens, UniProt Q86U44). As to the kind of experiment: METTL3-14 Standard Enzyme Assay (METTL3 biochemical assay). The conditions noted are these: METTL3 biochemical assay; read-out: METTL3 IC50. As to the method: Assays were performed in a 25 μl-volume in 384-well V-bottom polypropylene microplates (Greiner Bio-One, cat. No. 781280) at ambient temperature. Optimized 1× assay buffer was 20 mM HEPES pH 7.5, 50 mM KCl, 250 μM MgCl2, 1 mM DTT, 0.01% Tween, 0.01% BSG, 0.004 U/μl RNAseOUT (cat. No. 10777019, ThermoFisher Scientific, Waltham, Mass.). For compound screening METTL3/METTL14 (final concentration, f.c.=2.5 nM) was added using a Multidrop Combi (ThermoFisher Scientific, Waltham, Mass.) and preincubated for 5 min. Reactions were started by adding 3′ biotinylated RNA ([…]-biotin) (f.c.=100 nM) and 3H-SAM (f.c.=100 nM) substrates. Reactions proceeded for 30 minutes and were quenched with excess non-radioactive SAM (f.c.=15 μM). The reactions were then transferred to streptavidin-coated flashplates and incubated for 2 hours at 25° C. Following two washing cycles with 0.1% Tween-20, the plates were sealed and read on a TopCount (PerkinElmer, Waltham, Mass.) plate-based scintillation counter. For determination of kinetic parameters, reaction times were optimized so that measurements were taken during the initial velocity phase of the reaction.
METTL3/METTL14, sequence (Q86U44 whole entry, species assumed): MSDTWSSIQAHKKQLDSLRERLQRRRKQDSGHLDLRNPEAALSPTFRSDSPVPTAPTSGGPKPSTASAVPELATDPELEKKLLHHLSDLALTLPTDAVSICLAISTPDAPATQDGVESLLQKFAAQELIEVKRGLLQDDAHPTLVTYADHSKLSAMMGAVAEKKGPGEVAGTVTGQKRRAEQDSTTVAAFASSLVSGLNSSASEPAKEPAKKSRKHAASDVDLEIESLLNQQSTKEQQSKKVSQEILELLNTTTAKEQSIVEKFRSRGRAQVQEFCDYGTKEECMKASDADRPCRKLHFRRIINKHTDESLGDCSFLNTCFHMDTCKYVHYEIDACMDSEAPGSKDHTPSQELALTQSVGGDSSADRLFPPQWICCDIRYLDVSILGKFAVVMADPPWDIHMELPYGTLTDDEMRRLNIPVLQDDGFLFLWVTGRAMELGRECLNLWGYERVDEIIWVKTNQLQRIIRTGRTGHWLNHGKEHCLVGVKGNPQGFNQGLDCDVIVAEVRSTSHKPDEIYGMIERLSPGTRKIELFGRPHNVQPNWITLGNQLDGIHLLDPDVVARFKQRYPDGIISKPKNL
METTL3/METTL14, sequence (Q9HCE5 whole entry partner, species assumed): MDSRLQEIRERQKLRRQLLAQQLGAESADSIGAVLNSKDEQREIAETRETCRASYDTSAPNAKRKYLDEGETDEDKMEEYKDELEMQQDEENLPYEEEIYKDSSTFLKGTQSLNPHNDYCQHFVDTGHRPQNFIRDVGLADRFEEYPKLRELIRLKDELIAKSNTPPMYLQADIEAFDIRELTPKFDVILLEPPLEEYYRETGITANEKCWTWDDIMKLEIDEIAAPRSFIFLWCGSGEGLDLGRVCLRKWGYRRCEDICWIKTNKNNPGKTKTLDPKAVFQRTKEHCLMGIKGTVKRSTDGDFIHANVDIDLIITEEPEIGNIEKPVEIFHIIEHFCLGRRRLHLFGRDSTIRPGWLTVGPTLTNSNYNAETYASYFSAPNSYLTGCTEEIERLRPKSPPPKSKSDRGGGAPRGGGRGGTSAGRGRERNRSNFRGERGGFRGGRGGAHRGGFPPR

In the next assay the target is METTL1/WDR4 (Homo sapiens, UniProt Q9UBP6). As to the kind of experiment: METTL1 Assay (METTL1 biochemical assay). Conditions: read-out: METTL1 IC50; METTL1 biochemical assay. How it is done: Assays were performed in a 25 μl-volume in 384-well V-bottom polypropylene microplates (Greiner Bio-One, cat. No. 781280) at ambient temperature. Optimized 1× assay buffer was 20 mM HEPES pH 7.5, 50 mM KCl, 250 μM MgCl2, 1 mM DTT, 0.01% Tween, 0.01% BSG, 0.004 U/μl RNAseOUT (cat. No. 10777019, ThermoFisher Scientific, Waltham, Mass.). For compound screening METTL1/WDR4 (final concentration, f.c.=6.25 nM) was added using a Multidrop Combi (ThermoFisher Scientific, Waltham, Mass.) and preincubated for 5 min. Reactions were started by adding 3′ biotinylated RNA ([…]-biotin) (f.c.=25 nM) and 3H-SAM (f.c.=60 nM) substrates. Reactions proceeded for 20 minutes and were quenched with excess non-radioactive SAM (f.c.=15 μM). The reactions were then transferred to streptavidin-coated flashplates and incubated for 2 hours at 25° C. Following two washing cycles with 0.1% Tween-20, the plates were sealed and read on a TopCount (PerkinElmer, Waltham, Mass.) plate-based scintillation counter. For determination of kinetic parameters, reaction times were optimized so that measurements were taken during the initial velocity phase of the reaction.
METTL1/WDR4, sequence (Q9UBP6 whole entry, species assumed): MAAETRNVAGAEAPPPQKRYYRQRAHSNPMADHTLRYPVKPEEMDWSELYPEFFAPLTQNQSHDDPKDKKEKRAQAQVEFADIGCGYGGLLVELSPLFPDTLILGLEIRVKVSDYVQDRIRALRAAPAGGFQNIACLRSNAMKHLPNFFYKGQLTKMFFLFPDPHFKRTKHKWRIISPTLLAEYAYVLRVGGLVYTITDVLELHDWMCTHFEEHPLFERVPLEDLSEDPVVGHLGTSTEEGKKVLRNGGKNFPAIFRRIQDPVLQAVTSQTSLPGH
METTL1/WDR4, sequence (P57081 whole entry partner, species assumed): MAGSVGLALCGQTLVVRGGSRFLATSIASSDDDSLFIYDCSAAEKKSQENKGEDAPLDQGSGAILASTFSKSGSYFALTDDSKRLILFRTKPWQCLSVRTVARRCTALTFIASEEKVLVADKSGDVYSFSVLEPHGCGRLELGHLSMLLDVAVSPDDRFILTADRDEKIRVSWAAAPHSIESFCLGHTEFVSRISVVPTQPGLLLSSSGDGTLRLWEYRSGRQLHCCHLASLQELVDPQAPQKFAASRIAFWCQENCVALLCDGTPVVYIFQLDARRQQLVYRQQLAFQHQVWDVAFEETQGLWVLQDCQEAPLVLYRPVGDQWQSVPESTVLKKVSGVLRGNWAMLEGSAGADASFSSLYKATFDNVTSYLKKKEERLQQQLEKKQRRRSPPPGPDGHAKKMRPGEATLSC

The target in a further assay is PRMT5-MEP50 (Homo sapiens, UniProt O14744). As to the kind of experiment: PRMT5 Assay (PRMT5 biochemical assay). Conditions: PRMT5 biochemical assay; read-out: PRMT5 IC50. How it is done: Assays were performed in a 25 μl-volume in 384-well V-bottom polypropylene microplates (Greiner Bio-One, cat. No. 781280) at ambient temperature. Optimized 1× assay buffer was 20 mM Tris-HCl pH 8.0, 1 mM DTT, […]. For compound screening PRMT5-MEP50 (final concentration, f.c.=2.5 nM) was added using a Multidrop Combi (ThermoFisher Scientific, Waltham, Mass.) and preincubated for 5 min. Reactions were started by adding 3′ biotinylated histone H4 peptide acetylated on serine 1 (Ac-[…]-Biotin) (f.c.=100 nM) and 3H-SAM (f.c.=250 nM) substrates. Reactions proceeded for 60 minutes and were quenched with excess non-radioactive SAM (f.c.=15 μM). The reactions were then transferred to streptavidin-coated flashplates and incubated for 2 hours at 25° C. Following two washing cycles with 0.1% Tween-20, the plates were sealed and read on a TopCount (PerkinElmer, Waltham, Mass.) plate-based scintillation counter. For determination of kinetic parameters, reaction times were optimized so that measurements were taken during the initial velocity phase of the reaction.
PRMT5-MEP50, sequence (O14744 whole entry): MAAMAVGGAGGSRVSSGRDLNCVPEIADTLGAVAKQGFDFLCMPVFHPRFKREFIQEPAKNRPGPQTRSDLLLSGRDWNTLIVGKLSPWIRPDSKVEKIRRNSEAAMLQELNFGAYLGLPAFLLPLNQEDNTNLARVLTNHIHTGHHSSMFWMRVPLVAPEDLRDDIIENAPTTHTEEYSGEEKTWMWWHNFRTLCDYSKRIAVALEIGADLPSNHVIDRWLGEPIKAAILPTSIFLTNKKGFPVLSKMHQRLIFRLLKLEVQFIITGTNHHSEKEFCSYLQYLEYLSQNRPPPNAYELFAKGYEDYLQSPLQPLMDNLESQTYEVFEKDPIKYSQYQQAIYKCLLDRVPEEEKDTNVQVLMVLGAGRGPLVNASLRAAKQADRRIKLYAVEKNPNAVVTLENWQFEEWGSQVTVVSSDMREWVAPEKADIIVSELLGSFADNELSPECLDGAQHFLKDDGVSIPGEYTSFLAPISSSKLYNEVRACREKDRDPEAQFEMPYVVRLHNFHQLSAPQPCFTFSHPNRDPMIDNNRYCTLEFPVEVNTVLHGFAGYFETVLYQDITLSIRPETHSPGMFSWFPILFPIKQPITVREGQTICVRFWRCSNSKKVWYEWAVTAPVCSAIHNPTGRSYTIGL
PRMT5-MEP50, sequence (Q9BQA1 whole entry partner): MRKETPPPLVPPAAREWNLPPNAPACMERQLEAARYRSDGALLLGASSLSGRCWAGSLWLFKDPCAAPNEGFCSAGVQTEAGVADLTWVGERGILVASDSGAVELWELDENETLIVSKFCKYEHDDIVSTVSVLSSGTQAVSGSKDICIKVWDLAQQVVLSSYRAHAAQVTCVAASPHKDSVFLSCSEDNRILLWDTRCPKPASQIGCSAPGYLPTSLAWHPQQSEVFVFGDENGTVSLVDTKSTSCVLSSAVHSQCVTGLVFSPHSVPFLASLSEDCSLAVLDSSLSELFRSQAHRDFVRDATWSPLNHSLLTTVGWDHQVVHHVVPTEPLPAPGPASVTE

By IC50 is commonly meant the concentration that inhibits the measured activity by half. In the case of `Nc1ncnc2c1ccn2[C@@H]1C[C@H](CCc2ccc3[nH]ccc3c2)[C@@H](O)[C@H]1O` [I-92], the results for the IC50 on METTL3/METTL14, on METTL1/WDR4 and at PRMT5-MEP50 were over 1000 nM, over 1000 nM and 100 to 1000 nM, respectively.
Take `Nc1ncnc2c1ccn2[C@@H]1C[C@H](CCc2ccc3[nH]c(=O)[nH]c3c2)[C@@H](O)[C@H]1O` [I-93]: the IC50 is over 1000 nM on METTL3/METTL14, over 1000 nM on METTL1/WDR4 and 10 to 100 nM on PRMT5-MEP50.
`CN(C[C@H]1C[C@@H](n2ccc3c(N)ncnc32)[C@H](O)[C@@H]1O)c1ccc2ccc(N)nc2c1` [I-94]: the IC50 at METTL3/METTL14 is over 1000 nM; on METTL1/WDR4, over 1000 nM; on PRMT5-MEP50, under 10 nM.
Turning to `NC(=O)Nc1cccc(CC[C@H]2C[C@@H](n3ccc4c(N)ncnc43)[C@H](O)[C@@H]2O)c1` [I-95], the IC50 at METTL3/METTL14 was over 1000 nM; on METTL1/WDR4, over 1000 nM; on PRMT5-MEP50 it was 100 to 1000 nM.
Turning to `Nc1ncnc2c1ccn2[C@@H]1C[C@H](CCc2cccc(NC(=O)C3CC3)c2)[C@@H](O)[C@H]1O` [I-96], the IC50 at METTL3/METTL14 is over 1000 nM; at METTL1/WDR4, over 1000 nM; on PRMT5-MEP50, 100 to 1000 nM.
Regarding `Nc1ccc2cc(CC[C@H]3C[C@@H](n4ccc5c(NCCc6ccccc6)ncnc54)[C@H](O)[C@@H]3O)ccc2n1` [I-97], the IC50 was over 1000 nM at METTL3/METTL14, over 1000 nM at METTL1/WDR4 and 100 to 1000 nM on PRMT5-MEP50.
`CNC(=O)Nc1cccc(CC[C@H]2C[C@@H](n3ccc4c(N)ncnc43)[C@H](O)[C@@H]2O)c1` [I-99]: the IC50 is over 1000 nM at METTL3/METTL14, over 1000 nM on METTL1/WDR4 and 100 to 1000 nM at PRMT5-MEP50.
As to `Nc1cc2cc(CC[C@H]3C[C@@H](n4ccc5c(N)ncnc54)[C@H](O)[C@@H]3O)ccc2cn1` [I-100], the IC50 on METTL3/METTL14 is over 1000 nM; at METTL1/WDR4, over 1000 nM; on PRMT5-MEP50, 10 to 100 nM.
As for `Nc1ncnc2c1ccn2[C@@H]1C[C@H](CCc2ccc3cc[nH]c3c2)[C@@H](O)[C@H]1O` [I-101], the IC50 was over 1000 nM on METTL3/METTL14, over 1000 nM at METTL1/WDR4 and 100 to 1000 nM on PRMT5-MEP50.
As to `CCCNc1ncnc2c1ccn2[C@@H]1C[C@H](CCc2ccc3ccc(N)nc3c2)[C@@H](O)[C@H]1O` [I-102], the IC50 on METTL3/METTL14 was over 1000 nM; at METTL1/WDR4 it was over 1000 nM; on PRMT5-MEP50, under 10 nM.
For `Nc1ncnc2c1ccn2[C@@H]1C[C@H](CCc2ccc3cn[nH]c3c2)[C@@H](O)[C@H]1O` [I-103], the IC50 on METTL3/METTL14 was over 1000 nM; on METTL1/WDR4, over 1000 nM; on PRMT5-MEP50, 10 to 100 nM.
With `Nc1ncnc2c1ccn2[C@@H]1C[C@H](CCc2ccc3scnc3c2)[C@@H](O)[C@H]1O` [I-104], the IC50 is over 1000 nM at METTL3/METTL14, over 1000 nM on METTL1/WDR4 and under 10 nM at PRMT5-MEP50.
In the case of `Nc1ncnc2c1ccn2[C@@H]1C[C@H](CCc2ccc3ccc(NCCO)nc3c2)[C@@H](O)[C@H]1O` [I-105], the IC50 was 100 to 1000 nM on METTL3/METTL14, over 1000 nM at METTL1/WDR4 and under 10 nM on PRMT5-MEP50.
Take `Nc1ncnc2c1ccn2[C@@H]1C[C@H](CCc2ccc3[nH]ncc3c2)[C@@H](O)[C@H]1O` [I-106]: the IC50 was over 1000 nM at METTL3/METTL14, over 1000 nM on METTL1/WDR4 and 100 to 1000 nM on PRMT5-MEP50.
`Nc1ccc2ccc(CC[C@H]3C[C@@H](n4cc(Br)c5c(N)ncnc54)[C@H](O)[C@@H]3O)cc2n1` [I-107]: the figures for the IC50 at METTL3/METTL14, at METTL1/WDR4 and at PRMT5-MEP50 were 10 to 100 nM, over 1000 nM and under 10 nM, respectively.
As to `Nc1ccc2ccc(CC[C@H]3C[C@@H](n4ccc5c(N)ncnc54)[C@H](O)[C@@H]3O)cc2c1` [I-108], the IC50 at METTL3/METTL14 is over 1000 nM; on METTL1/WDR4 it was over 1000 nM; on PRMT5-MEP50, 100 to 1000 nM.
Consider `Nc1ccc2ccc(NC[C@H]3C[C@@H](n4ccc5c(N)ncnc54)[C@H](O)[C@@H]3O)cc2n1` [I-109], for which the IC50 was over 1000 nM at METTL3/METTL14, over 1000 nM on METTL1/WDR4 and 10 to 100 nM on PRMT5-MEP50.
Turning to `Nc1cccc2ccc(CC[C@H]3C[C@@H](n4ccc5c(N)ncnc54)[C@H](O)[C@@H]3O)cc12` [I-110], the IC50 at METTL3/METTL14 was over 1000 nM; on METTL1/WDR4 it was over 1000 nM; at PRMT5-MEP50 it was 100 to 1000 nM.
In the case of `Nc1ncnc2c1ccn2[C@@H]1C[C@H](CCc2ccc3cc(C#Cc4ccccc4)cnc3c2)[C@@H](O)[C@H]1O` [I-112], the IC50 on METTL3/METTL14 is over 1000 nM; on METTL1/WDR4 it was over 1000 nM; at PRMT5-MEP50 it was 10 to 100 nM.
With `Nc1ncnc2c1ccn2[C@@H]1C[C@H](CCc2cccc(=O)[nH]2)[C@@H](O)[C@H]1O` [I-113], the IC50 on METTL3/METTL14 is over 1000 nM; at METTL1/WDR4 it was over 1000 nM; at PRMT5-MEP50, 100 to 1000 nM.
Regarding `COc1cccc(CC[C@H]2C[C@@H](n3ccc4c(N)ncnc43)[C@H](O)[C@@H]2O)n1` [I-114], the IC50 on METTL3/METTL14, on METTL1/WDR4 and on PRMT5-MEP50 was over 1000 nM in each case.
As for `CC(C)Nc1ccc2ccc(CC[C@H]3C[C@@H](n4ccc5c(N)ncnc54)[C@H](O)[C@@H]3O)cc2n1` [I-116], the IC50 was 10 to 100 nM at METTL3/METTL14, over 1000 nM on METTL1/WDR4 and under 10 nM on PRMT5-MEP50.
Turning to `Nc1ncnc2c1ccn2[C@@H]1C[C@H](CCc2cccnc2)[C@@H](O)[C@H]1O` [I-117], the figures for the IC50 at METTL3/METTL14, at METTL1/WDR4 and at PRMT5-MEP50 were over 1000 nM, over 1000 nM and 10 to 100 nM, respectively.
With `Cc1nc(N)c2ccn([C@@H]3C[C@H](CCc4ccc5ccc(N)nc5c4)[C@@H](O)[C@H]3O)c2n1` [I-119], the IC50 on METTL3/METTL14 is over 1000 nM; at METTL1/WDR4, over 1000 nM; at PRMT5-MEP50 it was under 10 nM.
In the case of `Nc1ncnc2c1ccn2[C@@H]1C[C@H](CCc2ccc3ccc(NCc4ccccc4)nc3c2)[C@@H](O)[C@H]1O` [I-121], the IC50 at METTL3/METTL14 is 100 to 1000 nM; at METTL1/WDR4 it was over 1000 nM; at PRMT5-MEP50 it was under 10 nM.
Turning to `Nc1ncnc2c1ccn2[C@@H]1C[C@H](CCc2ccc3ccc(Nc4ccccc4)nc3c2)[C@@H](O)[C@H]1O` [I-122], the figures for the 50% inhibitory concentration (IC50) at METTL3/METTL14, on METTL1/WDR4 and at PRMT5-MEP50 were over 1000 nM, over 1000 nM and under 10 nM, respectively.
`Nc1ccc2ccc(OC[C@H]3C[C@@H](n4ccc5c(N)ncnc54)[C@H](O)[C@@H]3O)cc2n1` [I-124]: the IC50 at METTL3/METTL14 was 100 to 1000 nM; at METTL1/WDR4, over 1000 nM; on PRMT5-MEP50, under 10 nM.
For `Nc1ncnc2c1ccn2[C@@H]1C[C@H](CCc2cnc3cccnc3c2)[C@@H](O)[C@H]1O` [I-126], in that order: over 1000 nM, over 1000 nM and under 10 nM.
In the case of `Nc1ncnc2c1ccn2[C@@H]1C[C@H](CCc2ccc3cncnc3c2)[C@@H](O)[C@H]1O` [I-127], the IC50 at METTL3/METTL14 is over 1000 nM; on METTL1/WDR4 it was over 1000 nM; at PRMT5-MEP50 it was under 10 nM.
Take `Nc1ncnc2c1ccn2[C@@H]1C[C@H](CCc2ccc3cccnc3n2)[C@@H](O)[C@H]1O` [I-128]: the IC50 on METTL3/METTL14 was over 1000 nM; on METTL1/WDR4, over 1000 nM; on PRMT5-MEP50, under 10 nM.
For the molecule `CNc1ncnc2c1ccn2[C@@H]1C[C@H](CCc2ccc3ccc(N)nc3c2)[C@@H](O)[C@H]1O` [I-129], the IC50 was over 1000 nM on METTL3/METTL14, over 1000 nM at METTL1/WDR4 and under 10 nM on PRMT5-MEP50.
